Results taken from ChEMBL document CHEMBL5325424, “Structural design, synthesis, and anti-Trypanosomatidae profile of new Pyridyl-thiazolidinones” (Eur J Med Chem, 2023).
Calls of active or inactive are those of the source. The calls are words filed in the database; no cut-off is given here.

Assays:
[1] = Selectivity index, ratio of CC50 for mouse RAW264.7 cells to IC50 for Trypanosoma cruzi Y trypomastigotes infected in African green monkey Vero cells; assay type: toxicity; settings: read-out: Ratio CC50/IC50
[2] = Selectivity index, ratio of CC50 for mouse RAW264.7 cells to IC50 for Trypanosoma cruzi Tulahuen amastigotes infected in mouse L929 cells; assay type: toxicity, cell-based; settings: read-out: Ratio CC50/IC50
[3] = Selectivity index, ratio of CC50 for mouse RAW264.7 cells to IC50 for Leishmania amazonensis WHOM/00 LTB 0016 amastigotes infected in mouse RAW264.7 cells; assay type: toxicity, cell-based; settings: read-out: Ratio CC50/IC50
[4] = Cytotoxicity against mouse RAW264.7 cells incubated for 48 hrs by MTT assay; assay type: toxicity, cell-based
Trypanosoma cruzi [5] = test: Antitrypanosomal activity against Trypanosoma cruzi Tulahuen amastigotes infected in mouse L929 cells assessed as parasite growth inhibition measured after 7 days by CPRG/Nonidet based assay; assay type: functional, organism-based; settings: L929, 168 h
[6] = Selectivity index, ratio of CC50 for mouse RAW264.7 cells to IC50 for Leishmania amazonensis WHOM/00 LTB 0016 promastigotes; assay type: toxicity; settings: read-out: Ratio CC50/IC50
Leishmania amazonensis [7] = test: Antileishmanial activity against Leishmania amazonensis WHOM/00 LTB 0016 promastigotes assessed as parasite growth inhibition incubated for 72 hrs; assay type: functional, organism-based; settings: WHOM/00 LTB 0016, 72 h
Trypanosoma cruzi [8] = test: Antitrypanosomal activity against Trypanosoma cruzi Y trypomastigotes infected in African green monkey Vero cells assessed as parasite growth inhibition incubated for 24 hrs by hemocytometry; assay type: functional, organism-based
Leishmania amazonensis [9] = test: Antileishmanial activity against Leishmania amazonensis WHOM/00 LTB 0016 amastigotes infected in mouse RAW264.7 cells assessed as parasite growth inhibition incubated for 24 hrs by panoptic staining based assay; assay type: functional, organism-based; settings: WHOM/00 LTB 0016, RAW264.7, 24 h
Splenocyte = test: Immunomodulatory activity in mouse splenocytes assessed as reduction in IL-6 level at 10 ug/ml incubated for 24 hrs by flow cytometry; assay type: functional, cell-based; settings: dose 10.0 µg/ml

| IC50 (Trypanosoma cruzi [5]) [µM] | IC50 (Trypanosoma cruzi [8]) [µM] | SMILES | selectivity ratio [1] | selectivity ratio [2] | selectivity ratio [3] | CC50 at 48 h [4] [µM] | selectivity ratio [6] | IC50 (Leishmania amazonensis [7]) [µM] | IC50 (Leishmania amazonensis [9]) [µM] | Activity (Splenocyte) |
| --- | --- | --- | --- | --- | --- | --- | --- | --- | --- | --- |
| 7.59 | 403 | C/C(=N\N=C1/SCC(=O)N1C)c1ccncc1 | 1.1 | 56.2 | 1.05 | 426 | 0.5 | 806 | 403 | – |
| 242 | 168 | C/C(=N\NC(N)=S)c1ccncc1 | 2.76 | 1.91 | 0.9 | 464 | 4.5 | 104 | 515 | – |
| 0.62 | 322 | C/C(=N\N=C1/SCC(=O)N1c1ccccc1)c1ccncc1 | 0.5 | 250 | 0.48 | 155 | 0.2 | 644 | 323 | – |
| 68.9 | 344 | C/C(=N\N=C1\SC(C(C)C)C(=O)N1C)c1ccncc1 (stereo not given) | 1 | 5.17 | 5.17 | 356 | 0.5 | 689 | 68.9 | – |
| 8.74 | 4.2 | C/C(=N\N=C1/SCC(=O)N1c1ccccc1)c1ccccn1 | 53.2 | 25.5 | 0.69 | 223 | 0.9 | 259 | 322 | – |
| 0.89 | 1.5 | C/C(=N\N=C1\SC(C(C)C)C(=O)N1c1ccccc1)c1ccncc1 (stereo not given) | 197 | 332 | 51.9 | 296 | 13.2 | 22.4 | 5.7 | – |
| 0.84 | 43.9 | CC(C)C1S/C(=N/N=C/c2ccccn2)NC1=O (stereo not given) | 5.8 | 305 | 29.2 | 256 | 6.4 | 40.3 | 8.77 | – |
| 3.81 | 70.9 | O=C1CS/C(=N/N=C/c2ccccn2)N1c1ccccc1 | 0.9 | 16.2 | 0.18 | 61.9 | 0.1 | 675 | 337 | – |
| 1.39 | 138 | C/C(=N\NC(N)=S)c1ccccn1 | 0.11 | 11.6 | 0.03 | 16.1 | 0.8 | 20 | 515 | – |

More lines, now with the values behind:

| SMILES | IC50 (Trypanosoma cruzi [5]) [µM] | IC50 (Trypanosoma cruzi [8]) [µM] | selectivity ratio [1] | selectivity ratio [2] | selectivity ratio [3] | CC50 at 48 h [4] [µM] | selectivity ratio [6] | IC50 (Leishmania amazonensis [7]) [µM] | IC50 (Leishmania amazonensis [9]) [µM] | Activity (Splenocyte) |
| --- | --- | --- | --- | --- | --- | --- | --- | --- | --- | --- |
| C/C(=N\NC(=S)Nc1ccccc1)c1ccccn1 | 0.07 | 5.77 | 1 | 82.4 | 0.06 | 5.77 | 0.13 | 41.4 | 85.5 | – |
| C/C(=N\N=C1/NC(=O)CS1)c1ccncc1 | 6.3 | 185 | 1.5 | 43.8 | 0.64 | 276 | 0.3 | 854 | 427 | – |
| CN1C(=O)CS/C1=N/N=C/c1ccccn1 | 5.81 | 427 | 0.6 | 47.1 | 0.64 | 274 | 0.3 | 854 | 427 | – |
| O=C1CS/C(=N/N=C/c2ccccn2)N1 | 8.21 | 11.3 | 42.6 | 59.3 | 7.74 | 486 | 6 | 80.6 | 62.8 | – |
| CC1(C)S/C(=N/N=C/c2ccccn2)NC1=O | 1.61 | 89.5 | 5 | 279 | 1.11 | 449 | 3.7 | 123 | 403 | – |
| CNC(=S)N/N=C(\C)c1ccncc1 | 235 | 51.1 | 11.1 | 2.4 | 1.18 | 567 | 2.43 | 233 | 481 | – |
| CNC(=S)N/N=C(\C)c1ccccn1 | 0.76 | 84.4 | 0.08 | 9.75 | 0.27 | 7.49 | 0.1 | 69.5 | 27.2 | – |
| CCCCCCCCCCCCCCCCOP(=O)([O-])OCC[N+](C)(C)C [MILTEFOSINE] | – | – | – | – | 17.5 | – | 8.79 | 15.8 | 7.08 | Active |
| CNC(=S)N/N=C/c1ccccn1 | 5.66 | 2.04 | 27 | 9.72 | 0.1 | 55.1 | 3.97 | 13.8 | 515 | – |
| CC(C)C1S/C(=N/N=C/c2ccccn2)N(C)C1=O (stereo not given) | 0.75 | 11 | – | 355 | 14.3 | 267 | 13.2 | 20.2 | 18.6 | – |
| C/C(=N\NC(=S)Nc1ccccc1)c1ccncc1 | 2.88 | 1.27 | 583 | 256 | 2 | 740 | 17.9 | 41.4 | 370 | – |
| C/C(=N\N=C1\NC(=O)CS1)c1ccccn1 | 9.15 | 38 | 3.5 | 14.7 | 0.55 | 134 | 8.9 | 15.1 | 241 | – |
| N/C(S)=N/N=C/c1ccccn1 | 1.6 | 99.8 | 0.08 | 5.37 | 0.01 | 8.65 | 0.54 | 15.9 | 555 | – |
| CN1C(=O)C(C)(C)S/C1=N/N=C/c1ccccn1 | 0.81 | 53.9 | 7.2 | 477 | 1.01 | 387 | 10.1 | 38.3 | 380 | – |
| C/C(=N\N=C1/SCC(=O)N1C)c1ccccn1 | 80.5 | 111 | 2.6 | 3.61 | 3.61 | 291 | 0.6 | 506 | 80.5 | – |
| C/C(=N\N=C1/NC(=O)C(C(C)C)S1)c1ccncc1 (stereo not given) | 72.4 | 362 | 0.5 | 2.46 | 2.46 | 179 | 0.2 | 724 | 72.4 | – |
